We go through 13 compounds from patent US11427601B1, “Inhibitors of KEAP1-Nrf2 protein-protein interaction” (Janssen Pharmaceutica NV, priority 2018, dated 2022).

For experiment [1], the target named is Kelch domain of human KEAP 1 (321-624 aa) (Homo sapiens (Human), UniProt Q14145). Kind of experiment: KEAP1 KELCH ThermoFluor binding assay. The settings on record: KEAP Kelch 1.1 μM, pH 7.0, average of results obtained, read-out: Tf Kd.
Excerpt: The shift in the melting point described as a ΔTm is proportional to the concentration and affinity of the ligand. The compound potency may be compared as a rank order of either ΔTm values at a single compound concentration or in terms of KD values, estimated from concentration response curves.
The protein was expressed in E. coli with 6His tag that was cleaved prior to receipt for use.
Protein (KEAP Kelch) and compound solutions were dispensed into black 384-well polypropylene PCR microplates (Abgene) and overlayed with silicone oil (1 μL, Fluka, type DC 200) to prevent evaporation.
Experiment [2] concerns NrF2 activation of the ARE (Glo-Response ARE-luc2P HEK293 cell line). Put plainly: ARE luciferase reporter assay in HEK293 cells. Format: cell-based. To be noted: average of results obtained. (A reporter such as luciferase makes a cellular process visible.)
Description: The ARE assay utilizes a luciferase reporter cell line where the signal is proportional to NrF2 activation of the ARE. The cell line is commercially available from Promega and was prepared by stably transfecting HEK293 cells with a vector (pGL4.11) which contains the ARE response element upstream of a minimal promoter. The promoter drives expression of luc2 firefly luciferase gene. Upon disruption of KEAP1-Nrf2 binding by compound, Nrf2 translocates into the nucleus where it binds to the ARE and activates transcription of luciferase.
The materials used in this ARE assay are as follows: Glo-Response ARE-luc2P HEK293 cell line and One-Glo Luciferase Assay System were purchased from Promega (Madison, Wis.). Dulbecco's Modified Eagle medium ((DMEM), low glucose, GlutaMAX, pyruvate), fetal bovine serum (certified, heat inactivated), hygromycin B, Dulbecco's phosphate-buffered saline were purchased from Life Technologies (Grand Island, N.Y.). Penicillin, streptomycin solution (100×) and 0.05% trypsin-EDTA were purchased from Corning (Manassas, Va.). DMSO was purchased from EMD Millipore.
The ARE assay protocol is as follows: cells were maintained in growth medium (DMEM +10% FBS, 200 μg/mL hygromycin B, p-s) between 20-90% confluency by splitting twice per week. One day before the assay, cells were trypsinized, counted to determine viable cell count, and re-suspended in assay medium (DMEM +10% FBS, p-s) at 250,000 cells/mL. […] 100% DMSO was used as the low control. A 11-point dose series of the control compound was included on every plate. Compounds were spotted to an intermediate plate (Greiner # 781280 V-bottom 384 well plate) using the Echo acoustic dispenser (Labscyte San Jose, Calif.). Spot size was 240 nL.
On the day of the assay, 60 mL per well of assay medium was added to the pre-spotted plate to make 2X compound stocks using the Combi (Thermo Waltham, Mass.). Compound and medium were mixed on the Janus and 20 mL of 2× compound stock was added to the cell plate which already contained 20 mL of assay medium from cell plating. […] The plates were returned to the tissue culture incubator for 24 hours.
The next day, luciferase activity was measured according to the manufacturer's protocol for One-Glo luciferase reagent. The plates were removed from the incubator and allowed to equilibrate to room temperature for 30 min. Forty microliters of One-Glo reagent (equilibrated to room temperature) was added per well using the Combi. The plates were mixed on an orbital shaker for 3 min. Luminescence was read on the BMG Pherastar multiplate reader (Cary, N.C.) using the luminescence protocol (1 sec interval).
The dose-response data were analyzed in Genedata Screener using 4PL nonlinear regression model. Raw luminescence counts as well as normalized values were used for data analysis.

Where only a bound is given, the exact number is not on record here.

Chain of Kelch domain of human KEAP 1 (321-624 aa) (Q14145 321-624): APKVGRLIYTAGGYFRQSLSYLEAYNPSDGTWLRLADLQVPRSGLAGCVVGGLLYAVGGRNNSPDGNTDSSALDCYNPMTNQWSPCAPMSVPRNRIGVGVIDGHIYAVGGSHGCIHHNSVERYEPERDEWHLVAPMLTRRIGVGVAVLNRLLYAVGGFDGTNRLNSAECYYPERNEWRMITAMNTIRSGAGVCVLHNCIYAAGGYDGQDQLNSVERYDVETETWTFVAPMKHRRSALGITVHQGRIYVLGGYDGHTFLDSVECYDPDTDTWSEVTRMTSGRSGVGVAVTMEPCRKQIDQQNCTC

As to `CCn1nnc2c(C)c(C(CC(=O)O)c3ccc(C)c(CN4CC5(COC5)Oc5ccccc5S4(=O)=O)n3)ccc21` (racemic) [Example 237, (R/S)-3-(6-((1,1-Dioxidospiro[benzo[b][1,4,5]oxathiazepine-4,3′-oxetan]-2(3H)-yl)methyl)-5-methylpyridin-2-yl)-3-(1-ethyl-4-methyl-1H-benzo[d][1,2,3]triazol-5-yl)propanoic acid], the Kd in experiment [1] was 1.5 nM. `Cc1ccc([C@H](c2cc(C)n3c(C(F)(F)F)nnc3c2C)C(C)C(=O)O)cc1CN1C[C@@H]2CCCCN2c2ncccc2S1(=O)=O` (relative stereo) [Example 133, (3*R)-3-(5,8-Dimethyl-3)-(trifluoromethyl)-[1,2,4-triazolo[4,3-a]pyridine-7-yl)-3-(3-((*S)-5,5-dioxido-7,7a,8,9,10,11-hexahydro-6H-dipyrido[2,1-d:2′,3′-f][1,2,5]thiadiazepin-6-yl)methyl)-4-methylphenyl)-2-methylpropanoic acid] returned an EC50 in experiment [2] (Homo sapiens, HEK293, 24 h) of 2 nM. In experiment [2] (24 hours), `Cc1ccc([C@H](CC(=O)O)c2ccc3c(nnn3CC3CC3)c2C(F)F)cc1CN1C[C@@H]2CCCCN2c2ncccc2S1(=O)=O` (relative stereo) [Example 172, (*S)-3-(1-(Cyclopropylmethyl)-4-(difluoromethyl)-1H-benzo[d][1,2,3]triazol-5-yl)-3-(3-(((*S)-5,5-dioxido-7,7a,8,9,10,11-hexahydro-6H-dipyrido[2,1-d:2′,3′-f][1,2,5]thiadiazepin-6-yl)methyl)-4-methylphenyl)propanoic acid] displayed a concentration for a half-maximal effect (EC50) of 19 nM. In other words, the double-digit nanomolar range.

With `CCc1nnc2c(C)c([C@H](CC(=O)O)c3ccc(C)c(CN4C[C@H]5CCCN5c5ncccc5S4(=O)=O)c3)ccn12` (relative stereo) [Example 283, (*R)-3-(3-(((R)-5,5-dioxido-7a,8,9,10-tetrahydropyrido[2,3-f]pyrrolo[2,1-d][1,2,5]thiadiazepin-6(7H)-yl)methyl)-4-methylphenyl)-3-(3-ethyl-8-methyl-[1,2,4]triazolo[4,3-a]pyridin-7-yl)propanoic acid], the midpoint of the response in experiment [2] (24 hours), the EC50, lay at 4170 nM. Compared with the last compound, the EC50 is about 220-fold higher. `Cc1cnc2c(c1)S(=O)(=O)N(Cc1cc([C@H](CC(=O)O)c3ccn4c(C(F)(F)F)nnc4c3C)ccc1C)C[C@@H]1CCCCN21` (relative stereo) [Example 307, (*S)-3-(4-methyl-3-(((*S)-3-methyl-5,5-dioxido-7,7a,8,9,10,11-hexahydro-6H-dipyrido[2,1-d:2′,3′-f][1,2,5]thiadiazepin-6-yl)methyl)phenyl)-3-(8-methyl-3-(trifluoromethyl)-[1,2,4]triazolo[4,3-a]pyridin-7-yl)propanoic acid] showed an EC50 in experiment [2] (24 hours) of 2 nM. Same read-out and setting: with `Cc1ccc([C@H](c2ccc3c(nnn3C3CC3)c2C)C(C)(C)C(=O)O)cc1CN1CC2(CC2)Oc2nc(N[C@@H](C)CN3CCCCC3)c(C)cc2S1(=O)=O` (relative stereo) [Example 660, (*R)-3-(1-Cyclopropyl-4-methyl-1H-benzo[d][1,2,3]triazol-5-yl)-2,2-dimethyl-3-(4-methyl-3-((8′-methyl-1′,1′-dioxido-7′-(((S)-1-(piperidin-1-yl)propan-2-yl)amino)spiro[cyclopropane-1,4′-pyrido[2,3-b][1,4,5]oxathiazepin]-2′(3′H)-yl)methyl)phenyl)propanoic acid] the figure was 235 nM. Same read-out and setting: with `Cc1ccc([C@H](CC(=O)O)c2ccn3c(C(F)(F)F)nnc3c2C)cc1CN1CC2(COC2)Oc2ccc(F)cc2S1(=O)=O` (single isomer, unassigned) [Example 99] the figure was 5.8 nM. In turn, `Cc1ccc([C@H](CC(=O)O)c2cc(OC(F)F)c3c(c2)nnn3C)cc1CN1C[C@H]2CCCN2c2ncccc2S1(=O)=O` (single isomer, unassigned) [Example 247, (*S)-3-(7-(Difluoromethoxy)-1-methyl-1H-benzo[d][1,2,3]triazol-5-yl)-3-(3-(((R)-5,5-dioxido-7a,8,9,10-tetrahydropyrido[2,3-f]pyrrolo[2,1-d][1,2,5]thiadiazepin-6(7H)-yl)methyl)-4-methylphenyl)propanoic acid] returned an EC50 in experiment [2] (Homo sapiens, HEK293, 24 h) of 225 nM. As to `Cc1cnc2c(c1)S(=O)(=O)N(Cc1cc([C@H](c3ccn4c(C(F)(F)F)nnc4c3C)C(C)(C)C(=O)O)cnc1C)CC1(CC1)O2` (single isomer, unassigned) [Example 573, (*S)-2,2-Dimethyl-3-(8-methyl-3-(trifluoromethyl)-[1,2,4]triazolo[4,3-a]pyridin-7-yl)-3-(6-methyl-5-((8′-methyl-1′,1′-dioxidospiro[cyclopropane-1,4′-pyrido[2,3-b][1,4,5]oxathiazepin]-2′(3′H)-yl)methyl)pyridin-3-yl)propanoic acid], in experiment [2] (Homo sapiens, HEK293, 24 h), the half-maximal effective concentration (EC50) was determined as 321 nM.

As for `Cc1cnc2c(c1)S(=O)(=O)N(Cc1cc(C(c3ccn4c(C(F)(F)F)nnc4c3C)C(C)(C)C(=O)O)cnc1C)CC1(CC1)O2` (single isomer, unassigned) [Example 574, (*R)-2,2-Dimethyl-3-(8-methyl-3-(trifluoromethyl)-[1,2,4]triazolo[4,3-a]pyridin-7-yl)-3-(6-methyl-5-((8′-methyl-1′,1′-dioxidospiro[cyclopropane-1,4′-pyrido[2,3-b][1,4,5]oxathiazepin]-2′(3′H)-yl)methyl)pyridin-3-yl)propanoic acid], the concentration for a half-maximal effect (EC50) in experiment [2] (Homo sapiens, HEK293, 24 h) is 14600 nM. The compound `Cc1ccc([C@@H](c2ccn3c(C(F)(F)F)nnc3c2C)C(C)(C)C(=O)O)cc1CN1CC2(CC2)Oc2nc(OCCN3CCCC3)ccc2S1(=O)=O` (single isomer, unassigned) [Example 598, (*S)-3-(3-((1′,1′-dioxido-7′-(2-(pyrrolidine-1-yl)ethoxy)spiro[cyclopropane-1,4′-pyrido[2,3-b][1,4,5]oxathiazepin]-2′(3′H)-yl)methyl)-4-methylphenyl)-2,2-dimethyl-3-(8-methyl-3-(trifluoromethyl)-[1,2,4]triazolo[4,3-a]pyridine-7-yl)propanoic acid] registered an EC50 in experiment [2] (24 hours) of 8.85 nM. In experiment [2] (Homo sapiens, HEK293, 24 h), `Cc1ccc(C(c2ccn3c(C(F)(F)F)nnc3c2C)C(C)C(=O)O)cc1CN1C[C@@H]2CCCCN2c2ncccc2S1(=O)=O` (stereo in doubt) [Example 129, 3-(3-(((*S)-5,5-Dioxido-7,7a,8,9,10,11-hexahydro-6H-dipyrido[2,1-d:2′,3′-f][1,2,5]thiadiazepin-6-yl)methyl)-4-methylphenyl)-2-methyl-3-(8-methyl-3-(trifluoromethyl)-[1,2,4]triazolo[4,3-a]pyridine-7-yl)propanoic acid] had a half-maximal effective concentration (EC50) of 6.8 nM. The equilibrium dissociation constant (Kd) in experiment [1] is < 1 nM. On to “(*S)-3-(3-((7′-(3-((2-(2-aminoethoxy)ethyl)amino)-3-oxopropyl)-1′,1′-dioxido-2,3,5,6-tetrahydrospiro[pyran-4,4′-pyrido[2,3-b][1,4,5]oxathiazepin]-2′(3′H)-yl)methyl)-4-methylphenyl)-2,2-dimethyl-3-(8-methyl-3-(trifluoromethyl)-[1,2,4]triazolo[4,3-a]pyridin-7-yl)propanoic acid [Example 345]”, for which the half-maximal effective concentration (EC50) in experiment [2] (24 hours) is > 20 nM.

As a reminder, the Kd is the free concentration of one partner at which half of the binding sites on the other are occupied at equilibrium, for simple one-to-one binding. Usually EC50 stands for the concentration that produces a half-maximal response. Lower therefore signals higher potency in that assay.
